Test system: 5×FAD+/− hippocampal CA1 neurons
Assay: In vivo two-photon Ca2+ imaging of CA1 neurons (neuronal hyperactivity) in 5×FAD+/− mice
Set-up: species or system mouse
Method: Adult genetically engineered mice, 5×FAD^+/− (Oakley et al., 2006), RyR2-E4872Q^+/− (EQ^+/−) (Chen et al., 2014), 5×FAD^+/−/RyR2-E4872Q^+/− (5×FAD^+/−/EQ^+/−), and wildtype (WT) littermates of both sexes were used. R-carvedilol (R-CV) (at doses of 0.8, 1.6 or 3.2 mg/kg/day), racemic carvedilol (3.2 mg/kg/day), and vehicle control (DMSO) were delivered to 5×FAD^+/− mice in drinking water for one month, starting at different ages before (2-3 months old) or after (3-4 months old) the occurrence of AD pathologies (Oakley et al., 2006). To assess the effects of genetically and pharmacologically limiting RyR2 open time on the prevention and rescue of AD deficits in different stages (early, moderate, and late) of AD progression, animals at different ages (from 2-15 months) were used. As reported (Oakley et al., 2006), there was an age-dependence of AD progression in the 5×FAD^+/− mice. No sex-dependent differences in AD progression in these mice was observed. For 2-photon Ca^2+ imaging experiments, 5×FAD, RyR2 WT, and RyR2 mutant mice were cross-bred with the heterozygous Thy1-GCaMP6f transgenic mice (Chen et al., 2012; Chen et al., 2013) (GP5.17, JAX 025393) to express the GCaMP6f Ca^2+ sensing probe (driven by the Thy1 promotor) in hippocampal neurons in each of the genotypes used.
To determine whether limiting RyR2 open time can suppress AD-associated neuronal hyperactivity in vivo, double heterozygous 5×FAD^+/−/E4872Q^+/− mice were crossed with the heterozygous Thy-1 GCaMP6f^+/− transgenic mice (GP5.17, JAX 025393) to introduce the GCaMP6f^+/− transgene into each of the four genotypes (driven by the Thy1 promotor). In vivo two-photon imaging of GCaMP6f-expressing CA1 pyramidal neurons in each of the four genotypes to monitor spontaneous Ca^2+ transients was performed.
Neuronal hyperactivity has been reported in anesthetized AD model mice in vivo using two-photon Ca^2 + imaging (Busche et al., 2008; Busche et al., 2012; Lerdkrai et al., 2018; Busche et al., 2019). To facilitate comparison, the same approach described originally by Busche et al. and used by others in the field (Busche et al., 2012; Busche et al., 2008; Delekate et al., 2014; Eichhoff and Garaschuk, 2011; Kim et al., 2016; Takano et al., 2007; Zott et al., 2019) was employed. Craniotomy was performed according to the protocol reported previously (Busche, 2018; Busche et al., 2012; Busche et al., 2008) with some modifications. […] The body temperature was monitored and controlled at 36.5-37.5° C. during the entire surgery and imaging procedure. […] Besides the core body temperature, the respiratory and pulse rate were continuously monitored (MouseOx plus. STARR Life Science Corp.). […]

[1] = 3.2 mg/kg/day for one month, started at 2-3 or 3-4 months of age (both ages), vs vehicle pre-treated 5×FAD+/− mice

With COc1ccccc1OCCNC[C@@H](O)COc1cccc2[nH]c3ccccc3c12 [R-carvedilol, R-(+)-carvedilol] the “fraction of hyperactive neurons” value [1] was “significantly lower”, the “mean frequency of spontaneous Ca2+ transients” value [1] was “significantly lower” and the “overall spontaneous neuronal activity (cumulative probability analysis)” value [1] was “significantly lower”. For the same molecule, the “neuronal hyperactivity of 5×FAD+/− hippocampal CA1 neurons in vivo” value (3.2 mg/kg/day in drinking water for one month, started at 2-3 months (before AD pathology) or 3-4 months (after) of age, vs DMSO vehicle) was “prevented and rescued”.

From patent US20230381139A1, “METHODS OF TREATING AND/OR PREVENTING ALZHEIMER’S DISEASE WITH R-CARVEDILOL” (priority 2020, published 2023)
